# Data published in patent publication US20140155445A1, “Compounds and Methods for Treating Cancer and Diseases of the Central Nervous System” (Osta Biotechnologies Inc., priority 2007, published 2014).
# Tests used:
# [1] = test system: SKMEL-V+ cells; assay: Cell proliferation / survival, MTT assay, SKMEL-V+ cells; format: cell-based, human; conditions: 96 hours; for % cell survival: 6.25 μM to 100 μM
# Method: Exponentially growing SKMEL-V+ cells (1×10^3) were seeded in 96-well plates in complete medium. […] Cell survival was evaluated 96 hours later using the MTT metabolic assay (Benlimame N, He Q, Jie S, et al. FAK signaling is critical for ErbB-2/ErbB-3 receptor cooperation for oncogenic transformation and invasion. J Cell Biol 2005; 171: 505-16).
# [2] = test system: APPswe/PS1dE9 mice; assay: Behavioral studies (maze, fear conditioning) in APPswe/PS1dE9 mice; format: in vivo, mouse
# Method: The experiments were performed at Pennington Biomedical Research Centre (PBRC) of Lousiana State University, Baton Rouge, Lousiana and were approved by the Institutional Animal Care and Use Committee (IACUC) of PBRC.
# The APPswe/PS1dE9 mice were generated against a C57/BL6J background by breeding either +/+ males or females with −/− females or males, respectively.
# Memantine (10 mg/kg) and both doses of QC-199 (15 mg/kg & 30 mg/kg) were prepared in batches and frozen for later use. Each compound was weighed and dissolved in injectable sterile saline solution. Memantine was prepared at a concentration of 1 mg/ml, the 15 mg/kg dose of QC-199 at a volume of 15 mg/10 ml, and the 30 mg/kg dose of QC-199 at a volume of 30 mg/10 ml. The compounds were prepared in this volume so that the mice could easily be injected based on their body weight, e.g., a 35 gram mouse was injected with 0.35 ml dosing solution.
# Memantine and QC-199 dosing solutions were administered to mice via i.p. injections. The mice were weighed 3 times/week and were injected with a volume that matched their body weight. The mice were injected daily and the injection located was alternated each day to avoid potential complications from injection in the same location on a daily basis.
# After reaching their respective treatment duration, the wild type and APP/PS1 double transgenic mice were run through the STM and fear conditioning. The STM consisted of one day of straight run training (running down an alley from the start box to the goal box). This phase was implemented to establish the contingency that moving forward would provide escape into the dark and dry goal box. The mice were required to reach a criterion of completing the straight run in 15 sec or less on 7 out of 9 trials over a maximum of 15 trials. […] The following day each mouse was administered 15 trials in the STM with approximately 7-10 min between each trial where they were placed into a holding cage with a towel. The latency to reach the goal box and the number of errors committed were the dependent measures of learning. However, in our experience, errors committed is much more indicative of learning and is reported for this project. Pictures of the straight run (A) and maze (B) are shown in FIG. 42, along with a schematic (C) of the maze indicating the correct path. The data from the maze was collapsed into blocks of 5 trials for data summary and presentation.
# Med Associates Inc.'s MED-VFC-NIR-M NIR Video Fear Conditioning System for Mouse, Pavlovian fear conditioning was conducted after the STM. On Day 1 the mice were placed in Context 1 and given 5 tone+shock pairings. On day 2 the mice were placed back into Context 1 and their freezing response to being placed back into the original context where fear conditioning occurred was measured. Freezing is operationally defined as the cessation of all movement except that required for respiration. Freezing was measured over 10 minutes, and data were summarized in 1-min intervals. On day 3 the mice were placed into a novel context (Context 2) for 10 min. […] For the final 5 min, the tone paired with shock during fear conditioning was presented. Again, the data was summarized in 1-min intervals.
# Maze data was analyzed by two-way ANOVAs to determine treatment group effects for both errors and run time after the data was collapsed into three 5 trial blocks. Planned comparisons of transgenic mice treated with saline with each of the drug treatments, memantine or QC-199 at 15 mg/kg/day and 30 mg/kg/day were conducted to evaluate group differences in the maze at each trial block and both tone and contextual fear conditioning tests. The critical a level was set at 0.05 for all statistical tests. The values in FIGS. 46A-46C represent the means±S.E.M. The data was analyzed using the SPSS statistical program version 11.0. […]
# [3] = test system: human metastatic prostate cancer PC-3M cells; assay: Orthotopic PC-3M prostate cancer model in SCID mice; format: in vivo
# Source text: PC-3 & PC-3M (human prostate carcinoma). The PC-3 human prostate cancer cell line was originally obtained from the American Type Culture Collection (Rockville, Md.). The PC-3M cell line was kindly provided by Dr. Issac (MD Anderson Cancer Center). This cell variant was derived from a liver metastasis produced by the parental PC-3 cells growing in the spleen of a nude mouse [Pettaway C A, Pathak S, Greene G, et al. Selection of highly metastatic variants of different human prostate carcinomas utilizing orthotopic implantation in nude mice.
# Male SCID mice were housed in laminar flow under specific pathogen-free conditions and used at 8-9 weeks of age. Animals were maintained in the LDI facilities approved by the Laboratory Animal Care in accordance with current Canadian regulations and standards for the use of animals for research.
# Mice were anesthesized with isofluorane given by inhalation and placed in a supine position. […] A low midline incision was made and the prostate was exposed. Fifty microliters of HBSS containing 1×10^6 cells was injected into a lateral lobe of the prostate. The wound was closed with surgical metal clips in two layers, the muscle layer first and then the skin layer using stainless steel clips (autoclips: 9 mm; Clay Adams Inc., Parsippany, N.J.). […] Control groups received the vehicle alone. Taxol™ was given either ip or iv as indicated.
# Primary tumors in the prostate were excised, measured, and weighed. When applicable, immunohistochemistry and H&E staining were conducted on one part of the tumor, fixed in formalin and embedded in paraffin or OCT compound (Miles Inc., Elkhart, Ind.); the later was rapidly frozen in liquid nitrogen, and stored at −70° C. Macroscopically enlarged regional lymph nodes were harvested and the presence of metastatic disease was confirmed by histology.
# The in vivo data was analyzed using the Mann-Whitney U test.
# [4] = test system: PC-3 (human prostate carcinoma); assay: Prostate carcinoma model PC-3 in SCID mice
# Source text: • Species and strain: Mouse (Mus musculus); female SCID (MDA231 and OVCAR3), male SCID (PC-3, HCT116); male CD57 B16 mice (BL16-BL6) • Age: 6-8 weeks old. • Supplier: Charles River Laboratories, Inc., St-Constant, Quebec, Canada. • Acclimation: Mice were acclimated to laboratory conditions for approximately 1 week prior to tumor cell inoculation. • Identification: Mice were identified by ear punch combination. • Housing: Mice were housed in groups of 3-5 in a designated animal facility with a temperature of 22° C., a relative humidity of 40-50%, and a 12 hr light/dark cycle.
# PC-3 (human prostate carcinoma). These cells were originally received from the ATCC. Early passage cells (tested free of mycoplasma) were grown to 60% confluence in DMEM medium supplemented with 10% fetal bovine serum, and antibiotics. Cell harvesting was performed using trypsin-EDTA solution.
# Exponentially growing cells were harvested using trypsin-EDTA solution. […] Cell viability was confirmed by trypan blue staining. […] One to 2 millions cells suspended in 0.1 mL phosphate buffer solution was implanted into the mammary fat pad (MCF7) or subcutaneously into the axillary region of the right flank of recipient SCID mice. All animals were inoculated at the same site.
# Mice were subjected to general examination on daily basis. […] Control groups received the vehicle alone. Chemotherapy drugs were also given by intraperitoneal route according to the schedule described below.
# Primary tumor growth was monitored every second to fourth day using calipers. Relative tumor volume (cm^3) was determined by the formula:
# Body weights were monitored every third to fifth day. Animals experiencing signs of discomfort were sacrificed immediately (in some cases they were replaced by spared mice). […] Mice were sacrificed by cervical dislocation and immediately subjected to full autopsy.
# [5] = QC-56 30 mg/kg intraperitoneally daily for 12 days, Taxol 10 mg/kg i.p. 3 cycles
smiles,measurement,setting,value
"OC(Cn1ccnc1)c1ccc(-c2ccc(Br)cc2)cc1 (racemic) [QC-304, (±)-1-(4′-bromo-biphenyl-4-yl)-2-imidazol-1-yl-ethanol]",% cell survival,[1],no significant change in cell survival
same,potency in comparison with the other HO-1 inhibitors,[1]; 6.25 μM,most potent
"CC12CC3CC(C)(C1)CC(N)(C3)C2 [Memantine, reference compound]",effect on maze errors and contextual fear conditioning (summary),"[2]; Memantine, QC-199 15 mg/kg and 30 mg/kg, dtg mice",positive effect
same,maze errors vs saline-treated APP/PS1 mice,"[2]; QC-199 15 mg/kg/day i.p., Memantine 10 mg/kg i.p., improved at Trial Blocks 2 and 3, not 1",improved maze
same,contextual fear conditioning (freezing) vs saline-treated APP/PS1 mice,"[2]; QC-199 15 and 30 mg/kg/day, Memantine 10 mg/kg, Time Blocks 1-4",no significant differences
same,tone fear conditioning (freezing) vs saline-treated APP/PS1 mice,"[2]; QC-199 15 and 30 mg/kg/day, Memantine 10 mg/kg, Trial Blocks 3 and 4",no significant differences
"Cl.FC(F)(F)c1ccc(CCCCn2ccnc2)cc1 [QC-234, 1-[4-(4-(Trifluoromethyl)phenyl)butyl]-1H-imidazole hydrochloride]",% cell survival,[1],Dose dependent decrease in cell survival
"CC(=O)O[C@H]1C(=O)[C@@]2(C)[C@H]([C@H](OC(=O)c3ccccc3)[C@]3(O)C[C@H](OC(=O)[C@H](O)[C@@H](NC(=O)c4ccccc4)c4ccccc4)C(C)=C1C3(C)C)[C@]1(OC(C)=O)CO[C@@H]1C[C@@H]2O [Taxol™, paclitaxel, reference compound]",inhibition of tumor growth,[3]; [5],64%
same,reduction in microscopic lymph node metastases,[3]; [5],82%
same,reduction in microscopic lymph node metastases,"[3]; QC-56 40 mg/kg daily for 24 days, Taxol 10 mg/kg, 4 cycles",47%
same,inhibition of tumor growth compared to untreated mice,"[3]; QC-56 40 mg/kg daily for 24 days, Taxol 10 mg/kg, 4 cycles, 3 administrations per cycle",45%
same,Body Weights (g) d8 (mean + SE),"[4]; PC-3 mice, treatment day 8",22.40 ± 7.92 g
same,Body Weights (g) d42 (mean + SE),"[4]; PC-3 mice, treatment day 42",17.70 ± 6.25 g
same,inhibition of tumor growth compared to vehicle alone,"[4]; QC-56 60 mg/kg/ip, Taxol 10 mg/kg",~28%
